From PMC12444472, “BCI inhibits MKP3 by targeting the kinase-binding domain and disrupting ERK2 interaction” (The Journal of Biological Chemistry, 2025)

What was measured:
MKP3^CD = target: T1, MKP3^CD (Homo sapiens, UniProt Q16828); test: Phosphatase activity toward pERK2 (coupled MESG assay); assay type: biochemical; conditions: initial velocities in absence and presence of BCI, n = 3
T1 construct: ^15N-labeled MKP3^1–154, MKP3^14–152, MKP3^204–350; made in house; host or cells: Escherichia coli BL21(DE3)
T1 sequence (Q16828 204-350): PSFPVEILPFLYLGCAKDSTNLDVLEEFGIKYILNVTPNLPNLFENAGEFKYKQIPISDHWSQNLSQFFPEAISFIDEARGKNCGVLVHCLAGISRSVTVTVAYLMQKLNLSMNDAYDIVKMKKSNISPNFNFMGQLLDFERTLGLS
Method: (§1) The phosphatase activity of MKP3 (0.5 μM) toward pERK2 (0.5 μM) was measured using a coupled assay, in which phosphate released from the substrate was transferred to 7-methyl-6-thioguanosine (MESG) by purine nucleoside phosphorylase. Assays were performed in a reaction mixture containing 50 mM Mops (pH 7.0), 100 mM NaCl, 0.1 mM EDTA, 100 μM MESG, 4 μM purine nucleoside phosphorylase, and varying concentrations of BCI, as indicated in Figure 5. Dephosphorylation was monitored by measuring absorbance changes at 360 nm, reflecting the conversion of MESG to 7-methyl-6-thioguanine in the presence of inorganic phosphate. Phosphate quantification was performed using an extinction coefficient of 11,200 M^-1 cm^-1 at 360 nm.
(§2) Stock solutions of BCI (dissolved in DMSO) at different concentrations were prepared to maintain a constant DMSO concentration across all BCI concentrations in the phosphatase inhibition assays, thereby eliminating potential effects of varying DMSO levels on detection. Initial reaction rates were determined from the linear slope of progress curves, and the data were analyzed using nonlinear regression. Kinetic parameters (kcat and Km) were obtained by fitting the data to the Michaelis–Menten equation: v0 = kcat[E][S]/(Km + [S]). […]

MKP3^FL = target: T2, MKP3^FL (Homo sapiens, UniProt Q16828); test: as above; assay type: biochemical; conditions: BCI at concentration 50 times that of pERK2
T2 construct: MKP3(1–381) (MKP3^FL); made in house; host or cells: Escherichia coli BL21(DE3)
T2 sequence (Q16828 1-381): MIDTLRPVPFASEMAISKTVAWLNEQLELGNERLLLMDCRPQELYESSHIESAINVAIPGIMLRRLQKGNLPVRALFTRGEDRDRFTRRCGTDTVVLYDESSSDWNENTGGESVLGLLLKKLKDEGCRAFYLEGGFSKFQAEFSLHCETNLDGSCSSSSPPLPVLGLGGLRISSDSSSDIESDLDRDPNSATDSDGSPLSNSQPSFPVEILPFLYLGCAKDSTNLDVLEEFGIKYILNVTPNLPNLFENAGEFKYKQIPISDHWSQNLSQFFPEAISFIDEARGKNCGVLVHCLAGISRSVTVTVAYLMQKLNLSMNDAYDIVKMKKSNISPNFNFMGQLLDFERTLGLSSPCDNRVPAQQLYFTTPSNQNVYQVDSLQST
Method: as §1, §2

O=C1/C(=C/c2ccccc2)C(NC2CCCCC2)c2ccccc21 (centres unmarked) [BCI, (E)-2-benzylidene-3-(cyclohexylamino)-2,3-dihydro-1H-inden-1-one]
effect on MKP3^CD activity toward pERK2 (MKP3^CD): no effect | extension of pERK2 dephosphorylation time (MKP3^FL): more than 20 fold
